Measured values: patent US20220096597A1, “CARDIO-PROTECTIVE EFFECT OF VASOCONSTRICTION-INHIBITING FACTOR (VIF)” (Rheinisch-Westfälische Technische Hochschule Aachen (RWTH), priority 2019, published 2022)
Ends that are not written are not given here.

Tested on: C57BL/6N mice with induced myocardial infarction
Assay: Histology and immunohistochemistry of hearts after induced infarction
Assay type: in vivo
Conditions: infarcted mouse heart, up to 28 days; FIG. 6A and 6C
Protocol: To further study the newly identified effects of VIF (according to SEQ ID NO: 1), and especially in vivo, 8 to 10 week old wild type male C57BL/6N mice (Charles River, Germany) were intubated under anesthesia (100 mg/kg ketamine, 10 mg/kg xylazine, i.p.) and analgesia (0.1 mg/kg buprenorphine). The mice were ventilated with positive pressure and oxygenation using a rodent respirator (Harvard Apparatus, Germany). […]
A Gömöri trichrome staining was performed to determine the infarct size. Subsequently, three slices per mouse from 3 to 5 different mice were analyzed using ImageJ. after one of anti-SMA antibody (smooth muscle actin, DAKO, FIG. 6D), anti-MAC3 antibody (BD Pharmingen, FIG. 6B), anti-MPO antibody (Neomarkers, FIG. 6A) and anti-CD31 antibody (Santa Cruz Biotechnology, FIG. 6E) staining, followed by staining with fluorescein isothiocyanate (FITC)—or a Cy3-conjugated secondary antibody (DAKO, Germany). Positively stained cells or double-positive stained cells (FIG. 6C for anti-MAC3/MPO) were counted in three different fields per slice and expressed as cells per field of view (200× magnification).

Sequence: HSGFEDELSEVLENQSSQAELKEAVEEPSSKDVME [VIF]
- infiltration of neutrophils (anti-MPO) compared to non-treated controls: does not lead to an increased infiltration of neutrophils
